Some test systems named below: HCC-2998 colon; HCT-15 colon; HOP-92 NSCLC; HT29 colon; IGROV1 ovarian; KM12 colon; M14 melanoma; MDA-MB-435; MOLT-4 leukemia; NCI-H522 lung; RPMI-8226 leukemia; SF-295 CNS; SF-539 CNS; TK-10 renal; A498 renal; K-562 leukemia; OVCAR-5 ovarian.
Assay in all cases: DTP human tumour cell line panel, 48 h

The values that follow come from PubChem BioAssay (NCI).

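The compound was tested at five concentrations on cells cultured in 96-well plates, with a 48-hour exposure period. At the GI50, growth is halved. TGI: concentration producing complete growth inhibition.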 A value given as a limit tells only on which side of the number the result lay.

What is called TGI is the concentration at which net growth stops. For orientation: GI50 means the concentration that inhibits growth by half.

For the compound `NC1=NNC2(C(N)=N1)c1ccccc1-c1ccccc12`, the TGI with HCC-2998 colon, in the assay with HCT-15 colon, with HOP-92 NSCLC, in the assay on HT29 colon, in the assay with IGROV1 ovarian and in the assay on KM12 colon was above 10 µM throughout. Moreover, the TGI in the assay with M14 melanoma, in the assay on MDA-MB-435, with MOLT-4 leukemia, in the assay on NCI-H522 lung, in the assay on RPMI-8226 leukemia and with SF-295 CNS was above 10 µM throughout. Besides, the TGI in the assay on SF-539 CNS and in the assay on TK-10 renal was above 10 µM in each case.
As for `c1cncc(-c2ncc3cccnc3n2)c1`, the concentration for total growth inhibition (TGI) with A498 renal, with HCC-2998 colon, in the assay with HCT-15 colon, in the assay on HOP-92 NSCLC, in the assay on HT29 colon and in the assay on IGROV1 ovarian was above 100 µM throughout. In addition, the concentration for total growth inhibition (TGI) with K-562 leukemia, in the assay on KM12 colon, in the assay on MOLT-4 leukemia, with NCI-H522 lung, in the assay with OVCAR-5 ovarian and in the assay with RPMI-8226 leukemia was above 100 µM throughout. The TGI in the assay with SF-295 CNS, in the assay on SF-539 CNS and in the assay with TK-10 renal was above 100 µM in each case.
For the compound `O=C1CC2(CCNCC2)C(=O)N1N1CCCC1`, the total growth inhibition concentration (TGI) with HCC-2998 colon, with HCT-15 colon, in the assay on HT29 colon, in the assay on IGROV1 ovarian, with K-562 leukemia and in the assay on KM12 colon was above 100 µM in each case. The TGI with M14 melanoma, with MDA-MB-435, in the assay with MOLT-4 leukemia, in the assay with NCI-H522 lung, in the assay with OVCAR-5 ovarian and in the assay on RPMI-8226 leukemia was above 100 µM throughout. Moreover, the TGI with SF-295 CNS, in the assay on SF-539 CNS and in the assay on TK-10 renal was above 100 µM each time.
Regarding `CC(C)NCC(O)c1ccc(OCc2ccccc2)c(OCc2ccccc2)c1-c1ccccc1` (stereo unspecified), the TGI in the assay on A498 renal worked out at 11.6 µM; in the assay with HCC-2998 colon, 3.06 µM; with HCT-15 colon it was 3.22 µM; with HOP-92 NSCLC, 6.94 µM; in the assay with HT29 colon it was 3.04 µM; in the assay with IGROV1 ovarian, 2.71 µM. In addition, the TGI with MOLT-4 leukemia stood at 4.55 µM; in the assay with NCI-H522 lung, 3.16 µM; in the assay with OVCAR-5 ovarian, 3.16 µM; with SF-295 CNS, 3.55 µM; in the assay with SF-539 CNS, 2.98 µM; with TK-10 renal it was 3.9 µM.
For `COP1(=O)Oc2ccccc2C(=O)C(C(F)(F)F)(C(F)(F)F)O1` (stereo unspecified), the TGI with A498 renal, in the assay on HCC-2998 colon, in the assay with HCT-15 colon, in the assay on HOP-92 NSCLC, with HT29 colon and in the assay on IGROV1 ovarian was above 100 µM each time. For the same compound, the TGI with K-562 leukemia, in the assay with KM12 colon, with M14 melanoma, in the assay on MOLT-4 leukemia, in the assay on NCI-H522 lung and with OVCAR-5 ovarian was above 100 µM throughout. Also, the TGI in the assay with RPMI-8226 leukemia, in the assay on SF-295 CNS, with SF-539 CNS and in the assay on TK-10 renal was above 100 µM in each case.
Take `NS(=O)(=O)c1ccc(CNc2nc(-c3cccs3)nc3ccc(I)cc23)cc1`: the total growth inhibition concentration (TGI) is 27.7 µM with HCC-2998 colon; 28.9 µM in the assay on HCT-15 colon; 54.4 µM in the assay on HOP-92 NSCLC; 39.2 µM with HT29 colon; 30.6 µM in the assay with IGROV1 ovarian; above 100 µM in the assay with K-562 leukemia. For the same compound, the TGI with KM12 colon was 23.7 µM; with M14 melanoma, 28.4 µM; in the assay with MDA-MB-435 it was 27.8 µM; in the assay with MOLT-4 leukemia, 81.8 µM; in the assay on NCI-H522 lung, 28.2 µM; in the assay with OVCAR-5 ovarian it was 44.4 µM. For the same compound, the TGI in the assay on RPMI-8226 leukemia amounted to 49.5 µM; in the assay on SF-295 CNS it was 38 µM; in the assay with SF-539 CNS, 30.8 µM; in the assay with TK-10 renal it was 28.1 µM. For the same compound, the GI50 with K-562 leukemia was 36.7 µM.
With `CN(/N=C/C=N/N(C)C1=NCCCCN1)C1=NCCCCN1`, the concentration for total growth inhibition (TGI) in the assay with HCC-2998 colon, with HCT-15 colon, in the assay with HT29 colon, in the assay on IGROV1 ovarian, in the assay on K-562 leukemia and in the assay with M14 melanoma was above 100 µM throughout. Further, the TGI in the assay on MDA-MB-435, with MOLT-4 leukemia, in the assay with NCI-H522 lung, with OVCAR-5 ovarian, in the assay on SF-295 CNS and in the assay on SF-539 CNS was above 100 µM throughout. Besides, the TGI in the assay on TK-10 renal was above 100 µM.
`CC(=O)Oc1ccccc1C(=O)O`: the TGI in the assay on HCT-15 colon, with HT29 colon, with K-562 leukemia, in the assay on KM12 colon, in the assay with M14 melanoma and with MDA-MB-435 was above 100 µM throughout. Also, the concentration for total growth inhibition (TGI) in the assay on MOLT-4 leukemia, with NCI-H522 lung, with OVCAR-5 ovarian, in the assay on RPMI-8226 leukemia, in the assay on SF-295 CNS and in the assay with SF-539 CNS was above 100 µM throughout. The total growth inhibition concentration (TGI) with TK-10 renal was above 100 µM.
Take `O=C(OC(=C(c1ccccc1)c1ccccc1)N1CCCC1=S)C(c1ccccc1)c1ccccc1`: the TGI in the assay on A498 renal, in the assay with HCC-2998 colon, in the assay with HCT-15 colon, in the assay with HT29 colon, in the assay on IGROV1 ovarian and with K-562 leukemia was above 10 µM each time. Also, the concentration for total growth inhibition (TGI) with KM12 colon, in the assay on M14 melanoma, with MDA-MB-435, in the assay with MOLT-4 leukemia, in the assay on OVCAR-5 ovarian and in the assay with RPMI-8226 leukemia was above 10 µM in each case. Moreover, the concentration for total growth inhibition (TGI) with SF-295 CNS, with SF-539 CNS and in the assay on TK-10 renal was above 10 µM each time.
For the compound `ClC1=C(Cc2ccccc2)Cc2ccc3c(c21)CCC3`, the TGI is 40.1 µM in the assay on HCC-2998 colon; above 100 µM with HCT-15 colon; above 100 µM with HOP-92 NSCLC; 50.9 µM with HT29 colon; above 100 µM with IGROV1 ovarian; 76 µM in the assay with K-562 leukemia. The TGI with KM12 colon is 39.2 µM; with M14 melanoma it was above 100 µM; in the assay with MDA-MB-435 it was 75.6 µM; with MOLT-4 leukemia, 39.8 µM; with NCI-H522 lung, 39.5 µM; in the assay on OVCAR-5 ovarian, above 100 µM. Moreover, the TGI in the assay on RPMI-8226 leukemia was 65.3 µM; with SF-295 CNS, 91.8 µM; in the assay on SF-539 CNS it was above 100 µM; in the assay on TK-10 renal it was above 100 µM.
